Source: ChEMBL document CHEMBL6074704, “The Antiepileptic Drug Levetiracetam Inhibits Carbonic Anhydrase: In Vitro and In Silico Studies on Catalytically Active Human Isoforms” (ACS Med Chem Lett, 2024)

How the values were obtained:
[1] = target: Carbonic anhydrase 1 (Homo sapiens, UniProt P00915); test: Inhibition of human CA1 preincubated for 15 mins by phenol red staining based stopped flow CO2 hydrase assay
[2] = target: Carbonic anhydrase 3 (Homo sapiens, UniProt P07451)
Description: Inhibition of human CA3 preincubated for 15 mins by phenol red staining based stopped flow CO2 hydrase assay

[3] = target: Carbonic anhydrase 5B, mitochondrial (Homo sapiens, UniProt Q9Y2D0); test: Inhibition of human CA VB preincubated for 15 mins by phenol red staining based stopped flow CO2 hydrase assay
Sequence of Carbonic anhydrase 5B, mitochondrial (Q9Y2D0 whole entry): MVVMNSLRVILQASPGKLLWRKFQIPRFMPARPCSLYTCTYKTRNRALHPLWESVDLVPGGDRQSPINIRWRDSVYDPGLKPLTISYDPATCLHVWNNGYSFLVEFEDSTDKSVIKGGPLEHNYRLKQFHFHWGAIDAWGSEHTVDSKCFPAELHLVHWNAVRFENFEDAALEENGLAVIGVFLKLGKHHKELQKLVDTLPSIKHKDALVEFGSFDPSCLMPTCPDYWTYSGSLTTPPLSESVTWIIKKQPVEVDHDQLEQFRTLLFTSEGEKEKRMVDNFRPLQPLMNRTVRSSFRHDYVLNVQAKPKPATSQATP

[4] = target: Carbonic anhydrase 9 (Homo sapiens, UniProt Q16790)
[5] = target: Carbonic anhydrase 12 (Homo sapiens, UniProt O43570)
Sequence of Carbonic anhydrase 12 (O43570 whole entry): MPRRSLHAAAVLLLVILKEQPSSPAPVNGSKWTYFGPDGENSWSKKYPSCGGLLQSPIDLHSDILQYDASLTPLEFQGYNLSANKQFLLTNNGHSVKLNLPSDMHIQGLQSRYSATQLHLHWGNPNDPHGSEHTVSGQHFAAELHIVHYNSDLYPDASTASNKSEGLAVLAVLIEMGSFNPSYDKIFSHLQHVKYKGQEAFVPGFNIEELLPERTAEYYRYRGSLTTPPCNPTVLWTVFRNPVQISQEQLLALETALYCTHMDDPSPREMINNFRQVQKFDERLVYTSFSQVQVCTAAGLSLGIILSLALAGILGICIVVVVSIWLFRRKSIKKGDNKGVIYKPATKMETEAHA
Description: Inhibition of human CA12 preincubated for 15 mins by phenol red staining based stopped flow CO2 hydrase assay

[6] = target: Carbonic anhydrase 2 (Homo sapiens, UniProt P00918); test: Inhibition of human CA2 preincubated for 15 mins by phenol red staining based stopped flow CO2 hydrase assay
[7] = target: Carbonic anhydrase 6 (Homo sapiens, UniProt P23280); test: Inhibition of human CA6 preincubated for 15 mins by phenol red staining based stopped flow CO2 hydrase assay
Sequence of Carbonic anhydrase 6 (P23280 whole entry): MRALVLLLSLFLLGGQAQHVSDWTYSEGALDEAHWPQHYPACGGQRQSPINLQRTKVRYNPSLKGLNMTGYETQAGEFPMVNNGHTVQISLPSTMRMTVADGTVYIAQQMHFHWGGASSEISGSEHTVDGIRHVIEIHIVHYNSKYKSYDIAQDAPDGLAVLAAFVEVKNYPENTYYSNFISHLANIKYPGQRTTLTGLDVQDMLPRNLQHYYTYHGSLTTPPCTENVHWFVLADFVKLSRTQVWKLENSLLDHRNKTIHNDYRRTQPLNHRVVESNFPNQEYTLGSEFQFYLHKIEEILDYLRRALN

[8] = target: Carbonic anhydrase 5A, mitochondrial (Homo sapiens, UniProt P35218); test: Inhibition of human CA VA preincubated for 15 mins by phenol red staining based stopped flow CO2 hydrase assay
Sequence of Carbonic anhydrase 5A, mitochondrial (P35218 whole entry): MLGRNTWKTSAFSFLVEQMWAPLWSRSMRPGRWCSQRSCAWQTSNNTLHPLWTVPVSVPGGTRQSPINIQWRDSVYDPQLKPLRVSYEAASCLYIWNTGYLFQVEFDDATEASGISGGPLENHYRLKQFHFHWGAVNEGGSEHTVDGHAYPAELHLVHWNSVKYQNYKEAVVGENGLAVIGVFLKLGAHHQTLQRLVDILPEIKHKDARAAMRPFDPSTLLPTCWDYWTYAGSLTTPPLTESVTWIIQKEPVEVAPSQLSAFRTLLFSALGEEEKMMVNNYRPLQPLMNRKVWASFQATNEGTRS

[9] = target: Carbonic anhydrase 13 (Homo sapiens, UniProt Q8N1Q1); test: Inhibition of human CA13 preincubated for 15 mins by phenol red staining based stopped flow CO2 hydrase assay
Sequence of Carbonic anhydrase 13 (Q8N1Q1 whole entry): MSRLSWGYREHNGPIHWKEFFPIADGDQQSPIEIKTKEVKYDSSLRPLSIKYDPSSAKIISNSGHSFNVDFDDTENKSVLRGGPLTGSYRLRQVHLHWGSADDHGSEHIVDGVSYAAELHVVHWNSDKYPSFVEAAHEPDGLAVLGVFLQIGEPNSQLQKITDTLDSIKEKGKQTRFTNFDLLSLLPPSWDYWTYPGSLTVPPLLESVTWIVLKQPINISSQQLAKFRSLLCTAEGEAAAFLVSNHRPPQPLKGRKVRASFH

[10] = target: Carbonic anhydrase 4 (Homo sapiens, UniProt P22748); test: Inhibition of human CA4 preincubated for 15 mins by phenol red staining based stopped flow CO2 hydrase assay
Sequence of Carbonic anhydrase 4 (P22748 whole entry): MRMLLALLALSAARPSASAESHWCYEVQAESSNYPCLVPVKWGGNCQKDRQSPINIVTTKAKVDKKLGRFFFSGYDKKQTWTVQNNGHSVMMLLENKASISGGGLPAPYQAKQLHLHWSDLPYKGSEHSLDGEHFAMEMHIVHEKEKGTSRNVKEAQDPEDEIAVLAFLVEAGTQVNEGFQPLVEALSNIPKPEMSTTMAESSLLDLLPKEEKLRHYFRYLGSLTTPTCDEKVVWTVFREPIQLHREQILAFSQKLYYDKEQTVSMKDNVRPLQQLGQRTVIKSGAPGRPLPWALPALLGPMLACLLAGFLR

[11] = target: Carbonic anhydrase 14 (Homo sapiens, UniProt Q9ULX7); test: Inhibition of human CA14 preincubated for 15 mins by phenol red staining based stopped flow CO2 hydrase assay
Sequence of Carbonic anhydrase 14 (Q9ULX7 whole entry): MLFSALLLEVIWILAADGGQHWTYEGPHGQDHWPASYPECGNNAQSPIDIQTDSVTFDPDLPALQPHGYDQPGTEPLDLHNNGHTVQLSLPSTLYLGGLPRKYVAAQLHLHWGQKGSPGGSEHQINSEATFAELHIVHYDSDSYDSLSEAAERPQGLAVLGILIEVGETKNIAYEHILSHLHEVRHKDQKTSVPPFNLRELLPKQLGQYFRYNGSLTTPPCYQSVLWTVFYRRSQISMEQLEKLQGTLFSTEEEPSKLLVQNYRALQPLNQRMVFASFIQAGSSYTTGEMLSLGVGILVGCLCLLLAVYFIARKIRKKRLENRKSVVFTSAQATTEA

[12] = target: Carbonic anhydrase 7 (Homo sapiens, UniProt P43166)
Sequence of Carbonic anhydrase 7 (P43166 whole entry): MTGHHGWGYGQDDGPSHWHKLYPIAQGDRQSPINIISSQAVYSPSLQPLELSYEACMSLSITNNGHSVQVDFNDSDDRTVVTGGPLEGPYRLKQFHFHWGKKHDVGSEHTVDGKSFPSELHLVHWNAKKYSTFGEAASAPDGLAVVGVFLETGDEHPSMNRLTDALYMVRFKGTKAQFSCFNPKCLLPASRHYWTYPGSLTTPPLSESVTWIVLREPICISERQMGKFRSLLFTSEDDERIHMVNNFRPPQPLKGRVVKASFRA
Description: Inhibition of human CA7 preincubated for 15 mins by phenol red staining based stopped flow CO2 hydrase assay

Sequence of Carbonic anhydrase 1 (P00915 whole entry): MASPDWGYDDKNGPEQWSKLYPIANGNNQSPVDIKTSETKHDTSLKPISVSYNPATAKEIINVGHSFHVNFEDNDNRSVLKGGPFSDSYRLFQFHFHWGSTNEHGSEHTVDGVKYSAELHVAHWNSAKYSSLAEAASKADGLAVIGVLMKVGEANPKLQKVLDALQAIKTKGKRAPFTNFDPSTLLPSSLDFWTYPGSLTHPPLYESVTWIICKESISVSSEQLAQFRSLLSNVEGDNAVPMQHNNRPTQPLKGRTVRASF
Sequence of Carbonic anhydrase 3 (P07451 whole entry): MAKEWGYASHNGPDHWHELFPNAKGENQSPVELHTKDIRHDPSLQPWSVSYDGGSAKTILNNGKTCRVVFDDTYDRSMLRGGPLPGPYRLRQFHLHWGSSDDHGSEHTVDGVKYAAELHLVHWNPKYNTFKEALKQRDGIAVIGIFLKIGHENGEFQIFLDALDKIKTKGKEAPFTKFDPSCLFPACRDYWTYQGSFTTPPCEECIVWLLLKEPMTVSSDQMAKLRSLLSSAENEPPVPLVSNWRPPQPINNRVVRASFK

SMILES: CC[C@@H](C(N)=O)N1CCCC1=O
- Ki [1]: 7.95 µM
- Ki [2]: 2.44 µM
- Ki [3]: 3.86 µM
- Ki [4]: 0.089 µM
- Ki [5]: 0.054 µM
- Ki [6]: 3.92 µM
- Ki [7]: 8.4 µM
- Ki [8]: 9.2 µM
- Ki [9]: 4.17 µM
- Ki [10]: 5.3 µM
- Ki [11]: 2.27 µM
- Ki [12]: 7.55 µM
